Like-named read-outs stand apart in the source and are kept apart here.
Assay type: in vivo, patients
Excerpt: The clinical experimentation has been carried out on 18 patients of which 14 females and 4 males, having an average age equal to 62 years selected by the inclusion and exclusion criteria as hereinafter reported. The patients submitted to the clinical experimentation suffered from arthritis deformans diagnosed according to the ARA International Criteria since at least two years, belonging to the 2th and 3rd functional classes according to Steinbrocker. The disease was clinically active notwithstanding the use of drugs known as Disease-Modifying AntiRheumatic Drugs ([…]) able to modify the course of the illness such as for example methotrexate azathioprine, chloroquine, hydroxychloroquine and ciclosporin and notwithstanding the use of steroid and not steroid anti-inflammatory drugs. The patients suffering from arthritis deformans of 4th functional class according to Steinbrocker have been excluded from the experimentation that is the patients invalid with permanent injuries, the patients with associated serious systemic diseases, relevant psychiatric and neuropathic diseases, the drug addicts, the patients suffering from hypersensitivity to the macrolides and the patients under treatment with carbamazepine, ciclosporin and antihistamines. The clarithromycin administration started after the suspension of the Disease-Modifying AntiRheumatic Drugs since one month. In six patients who were assuming a steroid anti-inflammatory drug since at least two weeks, the administration of the same steroid drug with a 6 mg dose of prednisonic equivalent has been associated to the administration of clarithromycin. The administration of clarithromycin was 500 mg twice a day for 8-14 days and subsequently a customized dosage from 500 to 2,000 mg per day in one or two administrations has been applied. The control of the patients has been periodically carried out on 0, 10, 30, 60, 90 and 180 days by medical examination and determination of the haematochemical and functional indexes. In particular the following indexes have been controlled: • HAQ (Health Assessment Questionnaire, 1986), internationally validated as reference functional index in the rheumatic disease; • VAS (Visuanalogic Ache Scale according to Scott Huskisson); • ESR (Erythro Sedimentation Rate).

[1] = Day 180, clarithromycin 500 mg twice a day for 8-14 days, then 500 to 2,000 mg per day, p < 0.05 (Mann-Whitney U test)

CC[C@H]1OC(=O)[C@H](C)[C@@H](O[C@H]2C[C@@](C)(OC)[C@@H](O)[C@H](C)O2)[C@H](C)[C@@H](O[C@@H]2O[C@H](C)C[C@H](N(C)C)[C@H]2O)[C@](C)(OC)C[C@@H](C)C(=O)[C@H](C)[C@@H](O)[C@]1(C)O [clarithromycin]
ESR (Day 0 (baseline, before clarithromycin), 18 patients, Erythro Sedimentation Rate): 44.8 ± 8.4
HAQ (Day 0 (baseline, before clarithromycin), 18 patients, Health Assessment Questionnaire): 20.2 ± 2.6
VAS (Day 0 (baseline, before clarithromycin), 18 patients, Visuanalogic Ache Scale according to Scott Huskisson): 4.7 ± 0.51
HAQ (Day 180, clarithromycin 500 mg twice a day for 8-14 days, then 500 to 2,000 mg per day, p < 0.0001 (Mann-Whitney U test)): 5.5 ± 0.51 (a)
ESR [1]: 27 ± 5.8 (c)
VAS [1]: 1.32 ± 0.44 (b)
side effect ascribable to the drug (human, in vivo): No significant side effect
patients not responding (number of patients out of 18): 4
patients responding to the therapy (number of patients out of 18): 14
reduction of the symptomatology (starting from the second week of treatment): significant reduction of the symptomatology

Source: patent EP1285659A1, “Use of clarithromycin compositions in the manufacture of a medicament for the treatment of arthritis deformans” (Fondazione Salvatore Maugeri, priority 2001, dated 2003)
